Results on 11 molecules are retold here after ChEMBL document CHEMBL1201862, “PubChem BioAssay data set” (2004).

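Method: 48-hour compound exposure of cells in 96-well plates, five concentrations, linear interpolation of endpoints. At the GI50, growth is halved.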 The source made the active and inactive calls. Rule as the data show it: active = GI50 up to about 1.1 µM and inactive = higher.

Test systems include 786-0; A549; ACHN; COLO 205; HCT-116; HCT-15; Hs-578T; IGROV-1; K562; M14; MCF7; MDA-MB-231; NCI-H226; NCI/ADR-RES; OVCAR-3; OVCAR-5; OVCAR-8; SK-MEL-5; T47D; HL-60.
What all share (experiment): growth of human tumour cells (NCI), 48 h

In the case of `CN(CCc1ccc(Br)cc1)CCN1CCCCC1`, the GI50 is 30.1 µM (inactive) in the test with 786-0; 43.4 µM (inactive) in the test on A549; 62.5 µM (inactive) in the test with ACHN; 16.3 µM (inactive) in the test with COLO 205; 17.7 µM (inactive) in the test with HCT-116; 60.5 µM in the test with HCT-15. For the same molecule, the GI50 is 19.7 µM (inactive) with Hs-578T; 36.4 µM (inactive) with IGROV-1; 15.1 µM (inactive) with K562; 22.8 µM (inactive) in the test with M14; 21.7 µM (inactive) in the test with MCF7; 17.3 µM (inactive) in the test on MDA-MB-231. In addition, the GI50 with NCI-H226 was 33.4 µM (inactive); in the test on NCI/ADR-RES, 46.5 µM (inactive); in the test with OVCAR-3, 36.6 µM (inactive); in the test with OVCAR-5, 41 µM (inactive); with OVCAR-8 it was 31.4 µM (inactive); in the test with SK-MEL-5, 14.9 µM (inactive). The GI50 in the test with T47D is 39.7 µM (inactive).
As to `CCC(=O)/C(=C\I)c1ccccc1`, the GI50 was 1.78 µM (inactive) with 786-0; 20.9 µM (inactive) with A549; 2.05 µM (inactive) with COLO 205; 1.79 µM (inactive) with HCT-116; 1.8 µM in the test on HCT-15; 0.995 µM (active) with HL-60. For the same molecule, the GI50 in the test with Hs-578T was 5.2 µM (inactive); with IGROV-1 it was 1.97 µM (inactive); in the test on K562 it was 0.796 µM (active); with M14, 2.28 µM (inactive); in the test with MCF7, 1.67 µM (inactive); in the test with MDA-MB-231, 1.75 µM (inactive). Further, the GI50 in the test with NCI-H226 is 23.4 µM (inactive); in the test on NCI/ADR-RES it was 12.4 µM (inactive); in the test on OVCAR-3 it was 1.67 µM (inactive); with OVCAR-5, 1.84 µM (inactive); with OVCAR-8, 2 µM (inactive); in the test on T47D, 1.68 µM (inactive).
On to `CCOC(=O)/C(C(=O)Nc1cccc(C(F)(F)F)c1)=C(/N)N1CCOCC1`, for which the GI50 is > 100 µM (inactive) with 786-0; > 100 µM (inactive) in the test with A549; > 100 µM (inactive) in the test on ACHN; > 100 µM (inactive) with COLO 205; > 100 µM (inactive) in the test on HCT-116; over 100 µM in the test with HCT-15. The GI50 in the test with HL-60, in the test on Hs-578T, in the test with IGROV-1, with K562, in the test on M14 and in the test on MCF7 was > 100 µM (inactive) each time. The GI50 in the test with MDA-MB-231 was > 100 µM (inactive); with NCI-H226, 86.9 µM (inactive); in the test with NCI/ADR-RES it was > 100 µM (inactive); in the test with OVCAR-3, > 100 µM (inactive); in the test with OVCAR-5, > 100 µM (inactive); in the test on OVCAR-8 it was > 100 µM (inactive). The GI50 in the test on T47D was > 100 µM (inactive).
`CC(=O)NC(C)c1ccc(/N=N/N2CCCC2)cc1` (stereo not given): the GI50 was > 100 µM (inactive) with 786-0; > 100 µM (inactive) in the test with A549; > 100 µM (inactive) with ACHN; > 100 µM (inactive) with COLO 205; > 100 µM (inactive) in the test with HCT-116; over 100 µM in the test on HCT-15. In addition, the GI50 with HL-60 was 27.4 µM (inactive); with Hs-578T, > 100 µM (inactive); in the test with IGROV-1 it was > 100 µM (inactive); in the test with M14 it was > 100 µM (inactive); in the test with MCF7, > 100 µM (inactive); in the test with MDA-MB-231 it was > 100 µM (inactive). The GI50 in the test with NCI-H226, in the test with NCI/ADR-RES, in the test on OVCAR-3, in the test on OVCAR-5, in the test on OVCAR-8 and in the test with SK-MEL-5 was > 100 µM (inactive) throughout. Moreover, in the test with T47D, the GI50 is > 100 µM (inactive).
Turning to `CCOc1cc(C=O)c2c(ccc3ccc(OC)c(OC)c32)c1OC`, the GI50 in the test with 786-0 was > 100 µM (inactive); with A549, 46.1 µM (inactive); in the test on ACHN, 44 µM (inactive); in the test on COLO 205 it was 32.5 µM (inactive); in the test on HCT-116 it was 36 µM (inactive); in the test on HCT-15, 49.7 µM. In addition, the GI50 with HL-60 is 24.4 µM (inactive); in the test with Hs-578T it was 37.8 µM (inactive); in the test with IGROV-1, 89.9 µM (inactive); with K562, 14.5 µM (inactive); in the test with M14 it was 89.3 µM (inactive); in the test on MDA-MB-231, > 100 µM (inactive). The GI50 was 67.1 µM (inactive) in the test on NCI-H226; 17.5 µM (inactive) with NCI/ADR-RES; 31.6 µM (inactive) with OVCAR-3; > 100 µM (inactive) with OVCAR-5; 50 µM (inactive) with OVCAR-8; 52.4 µM (inactive) with SK-MEL-5. The GI50 in the test with T47D was 35.7 µM (inactive).
For `CCOc1ccc(N/C(=C(/C(Cl)=C(/Cl)NC(C)(C)C)[N+](=O)[O-])n2nnc3ccccc32)cc1`, the GI50 in the test on 786-0 is 18 µM (inactive); in the test on A549 it was 70.3 µM (inactive); in the test with ACHN it was 31.8 µM (inactive); with COLO 205 it was 21.1 µM (inactive); in the test on HCT-116, 18.6 µM (inactive); in the test on HCT-15, 20.4 µM. Besides, the GI50 in the test with Hs-578T was 11 µM (inactive); in the test with K562 it was > 100 µM (inactive); with M14, > 100 µM (inactive); in the test on MCF7 it was 26.1 µM (inactive); in the test with MDA-MB-231, 17.9 µM (inactive); in the test with NCI-H226 it was > 100 µM (inactive). Also, the GI50 in the test with NCI/ADR-RES is 32.4 µM (inactive); with OVCAR-3 it was 25.9 µM (inactive); in the test with OVCAR-5, 31.6 µM (inactive); in the test with OVCAR-8, 16.6 µM (inactive); with T47D, 15.5 µM (inactive).
Turning to `CCC/C(=N\NC(=S)N1CC2CCC(CC2)C1)c1ccccn1`, the GI50 in the test on 786-0 is 0.438 µM (active); in the test on A549, 0.414 µM (active); with ACHN it was 0.131 µM (active); in the test with COLO 205 it was 0.0205 µM (active); in the test with HCT-116, 0.0359 µM (active); in the test with HCT-15 it was 0.0853 µM. Moreover, the GI50 in the test on HL-60 was 0.00957 µM (active); in the test with Hs-578T it was 0.213 µM (active); with IGROV-1, 0.167 µM (active); in the test on K562 it was 0.00581 µM (active); with M14, 0.0929 µM (active); in the test with MCF7, 0.042 µM (active). The GI50 in the test with MDA-MB-231 is 1.01 µM (active); with NCI-H226, 1.82 µM (inactive); with OVCAR-3 it was 0.254 µM (active); with OVCAR-5, 0.649 µM (active); with OVCAR-8 it was 0.0877 µM (active); in the test on SK-MEL-5, 0.117 µM (active). Also, in the test with T47D, the GI50 is 0.00425 µM (active).
As for `COc1ccc(/C=C2\N=C(N3CCCC(CO)C3)NC2=O)cc1` (stereo not given), the GI50 with 786-0 is > 100 µM (inactive); in the test on A549 it was > 100 µM (inactive); in the test on ACHN it was > 100 µM (inactive); with COLO 205 it was > 100 µM (inactive); in the test with HCT-116, > 100 µM (inactive); in the test with HCT-15, over 100 µM. The GI50 in the test with HL-60, in the test with Hs-578T, in the test on IGROV-1, in the test with M14, in the test on MCF7 and in the test with MDA-MB-231 was > 100 µM (inactive) in each case. Also, the GI50 with NCI-H226, in the test on NCI/ADR-RES, with OVCAR-3, with OVCAR-5, in the test on OVCAR-8 and with SK-MEL-5 was > 100 µM (inactive) throughout. Moreover, in the test with T47D, the GI50 was > 100 µM (inactive).
On to `CCOC(=O)CNC(=O)CNC(=O)CNC(=O)CNNc1c(OCc2ccccc2)c(=O)c1=O`, for which the GI50 in the test on 786-0 was > 100 µM (inactive); with A549 it was > 100 µM (inactive); in the test on ACHN, > 100 µM (inactive); in the test with COLO 205, > 100 µM (inactive); with HCT-116, > 100 µM (inactive); in the test with HCT-15 it was over 100 µM. For the same molecule, the GI50 with Hs-578T, in the test with IGROV-1, in the test with K562, in the test on M14, in the test with MCF7 and with MDA-MB-231 was > 100 µM (inactive) throughout. The GI50 in the test on NCI-H226, with NCI/ADR-RES, in the test on OVCAR-3, in the test with OVCAR-5, in the test on OVCAR-8 and in the test with SK-MEL-5 was > 100 µM (inactive) throughout. Also, in the test on T47D, the GI50 was > 100 µM (inactive).
Regarding `COc1ccc(/N=C2\C(=N/c3ccc(OC)cc3)N(S(=O)(=O)c3ccccc3)C(=S)N2c2ccccc2)cc1`, the GI50 was > 100 µM (inactive) with 786-0; > 100 µM (inactive) in the test with A549; > 100 µM (inactive) in the test with ACHN; > 100 µM (inactive) with COLO 205; over 100 µM in the test on HCT-15; > 100 µM (inactive) in the test with Hs-578T. Also, the GI50 in the test with IGROV-1, with K562, in the test on M14, in the test on MCF7, with MDA-MB-231 and with NCI-H226 was > 100 µM (inactive) in each case. In addition, the GI50 in the test with NCI/ADR-RES, in the test on OVCAR-3, in the test on OVCAR-5, in the test on OVCAR-8, in the test on SK-MEL-5 and in the test on T47D was > 100 µM (inactive) in each case.
On to `O=C1c2cc(-c3ccccc3)cnc2S(=O)(=O)N1c1ccc(Br)cc1`, for which the GI50 with 786-0 was 37.6 µM (inactive); in the test with A549, 18.7 µM (inactive); in the test on ACHN it was > 100 µM (inactive); in the test with COLO 205 it was > 100 µM (inactive); with HCT-116 it was 71.9 µM (inactive); in the test on HCT-15, 34.7 µM. In addition, the GI50 with HL-60 is 18.9 µM (inactive); with Hs-578T, 20 µM (inactive); in the test with IGROV-1, 46.2 µM (inactive); with M14, 76.9 µM (inactive); with MCF7, > 100 µM (inactive); in the test on MDA-MB-231 it was 52.2 µM (inactive). Besides, the GI50 with NCI-H226 is > 100 µM (inactive); with NCI/ADR-RES, 83.6 µM (inactive); with OVCAR-3, 47.1 µM (inactive); with OVCAR-5, 40.8 µM (inactive); in the test with OVCAR-8, 44 µM (inactive); with SK-MEL-5, 70 µM (inactive). Also, in the test with T47D, the GI50 is 37.7 µM (inactive).
